Calls of active or inactive are those of the source. The calls are words filed in the database; no cut-off is given here.
Experiments:
Mus musculus [1] = assay: Increase in insulin degrading enzyme in cerebral cortex of APPswe/PSIdeltaE9 double transgenic C57BL/6J mouse at 30 mg/kg/day administered via oral gavage for 30 days by Western blot analysis; type: functional
Mus musculus [2] = assay: Decrease in amyloid plaque burden in cerebral cortex of APPswe/PSIdeltaE9 double transgenic C57BL/6J mouse at 30 mg/kg/day administered via oral gavage for 30 days by AB10 staining based immunohistochemical assay; type: functional; design: scale not given: the % may be the effect or the level left
Mus musculus [3] = assay: Effect on neprilysin levels in cerebral cortex of APPswe/PSIdeltaE9 double transgenic C57BL/6J mouse at 30 mg/kg/day administered via oral gavage for 30 days by Western blot analysis; type: functional, organism-based
Mus musculus [4] = assay: Increase in nerve growth factor levels in cerebral cortex of APPswe/PSIdeltaE9 double transgenic C57BL/6J mouse at 30 mg/kg/day administered via oral gavage for 30 days; type: functional, organism-based

Structure (SMILES)	Activity (Mus musculus [1]) [%]	Activity (Mus musculus [2]) [%]	Activity (Mus musculus [3])	Activity (Mus musculus [4])
CC(C)C1=C2[C@H]3CCC4=C(O)C(=O)[C@@]5(O)CO[C@H]6O[C@@H]([C@@H]4[C@]65O)[C@]3(C)CC[C@@]2(C)CC1	141.1	38.1	inactive	inactive
CC(C)C1=C2C3=CC=C(C=O)C[C@H](O[C@@H]4OC[C@@H](O)[C@H](O)[C@H]4O)[C@]3(C)CC[C@@]2(C)CC1	130.5	40.2	inactive	inactive

Source: ChEMBL document CHEMBL3797050, “Erinacine S, a Rare Sesterterpene from the Mycelia of Hericium erinaceus” (2016)
